Laboratory results taken from patent publication US7576094B2, “Spiro derivatives as lipoxygenase inhibitors” (Eli Lilly and Company, priority 2004, dated 2009).

Tests used:
[1] = target: T1, human recombinant 5-Lipoxygenase (Homo sapiens, UniProt P09917); assay: 5-Lipoxygenase Enzyme Assay; type: biochemical; conditions: 70 μM arachidonic acid, 10 minute incubation at room temperature, FOX reagent, absorbance at 620 nm; read-out: inhibition of 5-Lipoxygenase with an IC50
T1 sequence (P09917 1-674): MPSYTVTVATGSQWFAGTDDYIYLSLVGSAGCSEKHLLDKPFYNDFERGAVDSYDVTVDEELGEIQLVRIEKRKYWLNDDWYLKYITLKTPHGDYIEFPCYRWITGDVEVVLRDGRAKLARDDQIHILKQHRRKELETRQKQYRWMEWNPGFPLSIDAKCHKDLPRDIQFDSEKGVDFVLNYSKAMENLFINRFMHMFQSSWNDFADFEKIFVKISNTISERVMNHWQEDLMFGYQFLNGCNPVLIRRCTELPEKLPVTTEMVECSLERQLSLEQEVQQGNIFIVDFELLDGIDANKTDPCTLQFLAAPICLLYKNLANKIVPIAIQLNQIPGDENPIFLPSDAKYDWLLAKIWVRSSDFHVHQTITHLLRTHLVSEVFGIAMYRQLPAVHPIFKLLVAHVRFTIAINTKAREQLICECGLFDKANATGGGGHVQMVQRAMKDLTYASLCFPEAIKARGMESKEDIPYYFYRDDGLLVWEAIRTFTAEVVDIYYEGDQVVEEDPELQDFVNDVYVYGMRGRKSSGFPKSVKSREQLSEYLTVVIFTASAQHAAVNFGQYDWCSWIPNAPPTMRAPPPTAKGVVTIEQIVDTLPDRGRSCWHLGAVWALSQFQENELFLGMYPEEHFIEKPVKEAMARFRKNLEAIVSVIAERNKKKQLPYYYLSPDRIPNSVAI
Procedure, shortened: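 Recombinant human 5-LOX in 50 mM Tris-HCl pH 7.4 was preincubated with compound, then 70 μM arachidonic acid was added for 10 min at room temperature. Hydroperoxide was read by FOX reagent (ferric xylenol orange, 1 h complex formation) as absorbance at 620 nm. Five concentrations in triplicate were tested, starting at 10 μM.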

[2] = target: T2, porcine leukocyte 12/15-Lipoxygenase (Sus scrofa, UniProt P16469); assay: 12/15-Lipoxygenase Enzyme Assay; type: biochemical; conditions: 70 μM arachidonic acid, 10 minute incubation at room temperature, FOX reagent, absorbance at 620 nm; read-out: inhibition of 12/15-Lipoxygenase with an IC50
T2 sequence (P16469 1-663): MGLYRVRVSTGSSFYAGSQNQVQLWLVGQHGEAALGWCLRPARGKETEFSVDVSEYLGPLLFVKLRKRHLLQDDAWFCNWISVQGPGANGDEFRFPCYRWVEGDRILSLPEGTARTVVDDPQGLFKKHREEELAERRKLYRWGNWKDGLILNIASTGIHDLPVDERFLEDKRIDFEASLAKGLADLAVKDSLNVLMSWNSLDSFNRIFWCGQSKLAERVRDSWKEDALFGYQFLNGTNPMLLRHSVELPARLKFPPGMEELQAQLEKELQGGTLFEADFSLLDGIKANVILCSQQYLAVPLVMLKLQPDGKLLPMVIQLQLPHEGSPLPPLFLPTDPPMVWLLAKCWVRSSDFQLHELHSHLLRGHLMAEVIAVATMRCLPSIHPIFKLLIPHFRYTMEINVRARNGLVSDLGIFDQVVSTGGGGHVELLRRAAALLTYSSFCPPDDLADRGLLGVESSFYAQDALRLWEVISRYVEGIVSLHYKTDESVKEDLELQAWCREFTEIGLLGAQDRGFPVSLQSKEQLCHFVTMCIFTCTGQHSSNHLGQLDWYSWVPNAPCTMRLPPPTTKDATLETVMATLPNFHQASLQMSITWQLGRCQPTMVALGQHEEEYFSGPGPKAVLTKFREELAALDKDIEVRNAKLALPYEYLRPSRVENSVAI
Text: This procedure was used for measuring the enzymatic activity of porcine leukocyte 12/15-Lipoxygenase using a […] method based on the ferric oxidation of xylenol orange.
• 96 well flat bottom microfilter plates (VWR, Catalog # 62402-933 9295) • Lipoxygenase screening assay buffer (Cayman, Catalog # 760710) • Porcine leukocyte 12/15-Lipoxygenase (Cayman, Catalog # 60300) • Arachidonic Acid (Sigma, Catalog # A3555) • Xylenol orange tetrasodium salt (Aldrich, Catalog # 227854) • Iron (II) sulfate heptahydrate (Sigma, Catalog # F7002) • Sulfuric acid (95-98%) [18M] • Methanol Procedure
Porcine Leukocyte 12/15-Lipoxygenase (Cayman Cat # 60300) was used in this assay. Test compound and/or vehicle was added to 1.3 μL 12/15-Lipoxygenase in 50 mM Tris-HCl buffer, pH 7.4. The reaction was initiated by addition of 70 μM arachidonic acid in Tris-HCl buffer, pH 7.4, and terminated after a 10 minute incubation at room temperature by addition of FOX reagent (25 mM sulfuric acid, 100 μM xylenol orange, 100 μM iron (II) sulfate, methanol:water 9:1). The yellow color of acidified xylenol orange was converted to a blue color by the lipid hydroperoxide-mediated oxidation of Fe^2+ ions and the interaction of the resulting Fe^3+ ions with the dye. The complex was allowed to form during a 1 hour incubation at room temperature with shaking. Absorbance of the Fe^3+ complex was then measured at […] using a spectrophotometer.
Negative controls contained enzyme during the incubation step but substrate was not added until after the FOX reagent. Compounds are screened at 5 concentrations in triplicate starting at 10 μM

[3] = system: LTB4 production in human whole blood; assay: Inhibition of LTB4 Production in Blood; type: cell-based; conditions: 1 h, 20 μM A23187, 60 minutes at 37° C., LTB4 in plasma by ELISA, read-out: protection against LTB4 at an EC50
Procedure, shortened: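 Citrated human whole blood preincubated 15 min at 37 °C with compound (top final 30 μM, 1:3 dilutions, quadruplicate), then stimulated with 20 μM A23187 for 60 min at 37 °C. Plasma LTB4 quantified by ELISA; IC50 from percent inhibition versus vehicle.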

[4] = system: release of the leukotriene LTB4 from a neutrophil cell line (MPRO cell line); assay: LTB4-Cell Assay; type: cell-based; conditions: Mus musculus, 1 h, read-out: inhibition of LTB4 with an EC50
Procedure, shortened: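 Mouse promyelocytic cells differentiated to neutrophils with 10 μM all-trans retinoic acid for 72 h, then stimulated with 1 μM A23187 plus compound for 1 h at 37° C. Supernatant LTB4 quantified by competitive EIA; 5 concentrations in quadruplicate from 10 μM top.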

| Structure (SMILES) | IC50 [1] | IC50 [2] | EC50 [3] | EC50 [4] |
| --- | --- | --- | --- | --- |
| Cc1c(O)cc2c(c1C)N(c1cccc(O)c1)CC1(CCC1)C2 [1′-(3-hydroxyphenyl)-7′,8′-dimethyl-2′,4′-dihydro-1′H-spiro[cyclobutane-1,3′-quinolin]-6′-ol] | < 0.3 µM | < 5 µM |  |  |
| Cc1c(O)cc2c(c1C)N(c1ccc(O)cn1)CC1(CCC1)C2 [1′-(5-hydroxypyridin-2-yl)-7′,8′-dimethyl-2′,4′-dihydro-1′H-spiro[cyclobutane-1,3′-quinolin]-6′-ol] | < 0.3 µM | < 5 µM | < 10 µM |  |
| CCN1CC2(CCC2)Cc2cc(O)c(C)c(C)c21 [1′-ethyl-7′,8′-dimethyl-2′,4′-dihydro-1′H-spiro[cyclobutane-1,3′-quinolin]-6′-ol] |  | < 5 µM |  |  |
| COc1cc2c(c(C)c1C)N(c1ccc(O)cc1)CC1(CCC1)C2 [4-(6′-methoxy-7′,8′-dimethyl-2′,4′-dihydro-1′H-spiro[cyclobutane-1,3′-quinoline]-1′-yl)phenol] | < 0.3 µM | < 5 µM |  |  |
| Cc1c(C)c2c(c(C)c1O)C(OC1CCCC1)CC1(CCC1)O2 (stereo not drawn) [4-(cyclopentyloxy)-5,7,8-trimethyl-3,4-dihydrospiro[chromene-2,1′-cyclobutane]-6-diol] | < 0.3 µM | < 5 µM |  | < 5 µM |
| Cc1c(C)c2c(c(C)c1O)C(SC(C)C)CC1(CCC1)O2 (stereo not drawn) [4-(isopropylthio)-5,7,8-trimethyl-3,4-dihydrospiro[chromene-2,1′-cyclobutan]-6-ol] | < 0.3 µM | < 5 µM |  | < 5 µM |
| CCOC1CC2(CCC2)Oc2c(C)c(C)c(O)c(C)c21 (stereo not drawn) [4-ethoxy-5,7,8-trimethyl-3,4-dihydrospiro[chromene-2,1′-cyclobutan]-6-ol] | < 0.3 µM | < 5 µM |  | < 5 µM |
| Cc1c(C)c2c(c(C)c1O)CCC1(CCC1)O2 [5,7,8-trimethyl-3,4-dihydrospiro[chromene-2,1′-cyclobutan]-6-ol] | < 0.3 µM | < 5 µM |  | < 5 µM |
| Cc1c(C)c2c(c(C)c1OC(=O)CN1CCN(C)CC1)CCC1(CCC1)O2 [5,7,8-trimethyl-3,4-dihydrospiro[chromene-2,1′-cyclobutan]-6-yl-2-(4-methylpiperazin-1-yl)acetate] |  | < 5 µM |  |  |
| Cc1c(C)c2c(c(C)c1O)CC1(CCC1)CO2 [5,7,8-trimethylspiro[chroman-3,1′-cyclobutan]-6-ol] | < 0.3 µM | < 5 µM | < 10 µM |  |
| CCc1cc2c(c(CC)c1O)C=CC1(CCC1)O2 [5,7-diethylspiro[chromene-2,1′-cyclobutan]-6-ol] | < 0.3 µM | < 5 µM | < 10 µM |  |
| CC(C)c1cc2c(c(C(C)C)c1O)C=CC1(CCC1)O2 [5,7-diisopropylspiro[chromene-2,1′-cyclobutan]-6-ol] | < 0.3 µM | < 5 µM | < 10 µM |  |
| Cc1cc2c(c(C)c1O)C=C(c1cnco1)C1(CCC1)O2 [5,7-dimethyl-3-(1,3-oxazol-5-yl)spiro[chromene-2,1′-cyclobutan]-6-ol] | < 0.3 µM | < 5 µM | < 10 µM |  |
| Cc1cc2c(c(C)c1O)CC(c1cnco1)C1(CCC1)O2 (stereo not drawn) [5,7-dimethyl-3-(oxazol-5-yl)spiro[chroman-2,1′-cyclobutan]-6-ol] | < 0.3 µM | < 5 µM | < 10 µM |  |
| Cc1c(O)c(CCc2ccc3ccccc3n2)c(C)c2c1CCC1(CCC1)O2 [5,8-dimethyl-7-(2-(quinolin-2-yl)ethyl)spiro[chroman-2,1′-cyclobutan]-6-ol] |  | < 5 µM |  |  |
| Cc1c(O)c(CCC(C)C)c(C)c2c1CCC1(CCC1)O2 [5,8-dimethyl-7-(3-methylbutyl)-3,4-dihydrospiro[chromene-2,1′-cyclobutan]-6-ol] | < 0.3 µM | < 5 µM |  | < 5 µM |
| Cc1c(C)c2c(c(C)c1O)CCC1(CCC1)S2 [5′,7′,8′-trimethyl-3′,4′-dihydrospiro[cyclobutane-1,2′-thiochromen]-6′-ol] | < 0.3 µM | < 5 µM |  | < 5 µM |
| Cc1c(C)c2c(c(C)c1O)C=CC1(CCC1)S2 [5′,7′,8′-trimethylspiro[cyclobutane-1,2′-thiochromen]-6′-ol] | < 0.3 µM | < 5 µM |  | < 5 µM |
| COc1c(C(C)(C)C)cc2c(c1C)CC1(CCC1)CN2c1ccc(O)cn1 [6-(7′-tert-butyl-6′-methoxy-5′-methyl-2′,4′-dihydro-1′H-spiro[cyclobutane-1,3′-quinoline]-1′-yl)pyridin-3-ol] |  | < 5 µM |  |  |
| Cc1c(O)c(-c2cc3ccccc3o2)c(C)c2c1CCC(C)(C)O2 [7-(1-benzofuran-2-yl)-2,2,5,8-tetramethylchroman-6-ol] |  | < 5 µM |  |  |
| Cc1c(O)c(C(C)C)cc2c1CCC1(CCC1)O2 [7-isopropyl-5-methyl-3,4-dihydrospiro[chromene-2,1′-cyclobutan]-6-ol] | < 0.3 µM | < 5 µM | < 10 µM |  |
| Cc1c(O)c(C(C)C)cc2c1C=CC1(CCC1)O2 [7-isopropyl-5-methylspiro[chromene-2,1′-cyclobutan]-6-ol] | < 0.3 µM | < 5 µM | < 10 µM |  |
| Cc1ccc(N2CC3(CCC3)Cc3cc(O)c(C)c(C)c32)cc1 [7′,8′-dimethyl-1′-p-tolyl-2′,4′-dihydro-1′H-spiro[cyclobutane-1,3′-quinolin]-6′-ol] | < 0.3 µM | < 5 µM |  |  |
| Cc1c(O)c(C(C)(C)C)cc2c1CC1(CCC1)CN2c1ccc(O)cn1 [7′-tert-butyl-1′-(5-hydroxypyridin-2-yl)-5′-methyl-2′,4′-dihydro-1′H-spiro[cyclobutane-1,3′-quinolin]-6′-ol] |  | < 5 µM |  |  |
| CCCc1ccc(S(=O)(=O)NCCCN2CC3(CCC3)Cc3cc(O)c(C)c(C)c32)cc1 [N-(3-(6′-hydroxy-7′,8′-dimethyl-2′,4′-dihydro-1′H-spiro[cyclobutane-1,3′-quinoline]-1′-yl)propyl)-4-propylbenzenesulfonamide] | < 0.3 µM | < 5 µM | < 10 µM |  |
